According to PubChem BioAssay AID330 (DTP/NCI, 2004):
Where “and” joins values, the source holds several entries; their conditions need not be identical. Identical values can stand only once. Inconclusive results and toxic doses are left out. The calls were made as follows: active = survival T/C of 150% or more; inactive = T/C below 125% in these data.

Test system: P388 leukemia ip, CD2F1 mice, survival T/C
Test: NCI In Vivo Anticancer Drug Screen. Data for tumor model P388 Leukemia (intraperitoneal) in CD2F1 (CDF1) mice
Conditions: endpoint: median survival time, higher = longer survival
Outline: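 Mice carrying the transplanted tumor received test compound or vehicle. Survival was recorded in each group, and the value is the treated-group measurement divided by that of the vehicle-treated control group.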

[1] = dose: 10.0 mg/kg/injection, schedule: Q01DX009 (ip), vehicle: saline
[2] = dose: 100.0 mg/kg/injection, schedule: Q04DX003 (ip), vehicle: saline with Tween-80
[3] = dose: 200.0 mg/kg/injection, schedule: Q04DX003 (ip), vehicle: saline with Tween-80
[4] = dose: 400.0 mg/kg/injection, schedule: Q04DX003 (ip), vehicle: saline with Tween-80
[5] = dose: 100.0 mg/kg/injection, schedule: Q04DX003 (ip), vehicle: saline
[6] = dose: 50.0 mg/kg/injection, schedule: Q01DX009 (ip), vehicle: saline
[7] = dose: 100.0 mg/kg/injection, schedule: Q01DX009 (ip), vehicle: saline
[8] = dose: 200.0 mg/kg/injection, schedule: Q01DX009 (ip), vehicle: saline
[9] = dose: 25.0 mg/kg/injection, schedule: Q01DX009 (ip), vehicle: Klucel (hydroxypropylcellulose) (HPC)
[10] = dose: 50.0 mg/kg/injection, schedule: Q01DX009 (ip), vehicle: Klucel (hydroxypropylcellulose) (HPC)
[11] = dose: 100.0 mg/kg/injection, schedule: Q01DX009 (ip), vehicle: Klucel (hydroxypropylcellulose) (HPC)
[12] = dose: 25.0 mg/kg/injection, schedule: Q01DX009 (ip), vehicle: saline with Tween-80
[13] = dose: 25.0 mg/kg/injection, schedule: Q01DX009 (ip), vehicle: saline
[14] = dose: 50.0 mg/kg/injection, schedule: Q01DX009 (ip), vehicle: saline with Tween-80
[15] = dose: 100.0 mg/kg/injection, schedule: Q01DX009 (ip), vehicle: saline with Tween-80
[16] = dose: 200.0 mg/kg/injection, schedule: Q01DX009 (ip), vehicle: saline with Tween-80

Measured: T/C

NC(=NCc1ccccc1)c1ccc(N=C(N)c2ccc(C(N)=Nc3ccc(C(N)=NCc4ccccc4)cc3)cc2)cc1
inactive: dose: 5.0 mg/kg/injection, schedule: Q01DX009 (ip), vehicle: saline sonified 118 % of control | dose: 6.6 mg/kg/injection, schedule: Q01DX009 (ip), vehicle: saline 109 % of control | [1] 122 % of control | dose: 10.0 mg/kg/injection, schedule: Q04DX003 (ip), vehicle: saline with Tween-80 104 % of control | dose: 20.0 mg/kg/injection, schedule: Q04DX003 (ip), vehicle: saline with Tween-80 95 % of control

CSC(=N\N=C\c1ccc2c(c1)OCO2)/N=C/N(C)C
inactive: dose: 60.0 mg/kg/injection, schedule: Q01DX005 (ip), vehicle: saline with Tween-80 98 % of control | dose: 120.0 mg/kg/injection, schedule: Q01DX005 (ip), vehicle: saline with Tween-80 97 % of control | dose: 240.0 mg/kg/injection, schedule: Q01DX005 (ip), vehicle: saline with Tween-80 94 % of control

COc1cc[c]([Pb]([O]C(C)=O)([O]C(C)=O)[O]C(C)=O)cc1
inactive: [2] 103 % of control | [3] 103 % of control | [4] 111 % of control

COC(=O)/C=C1\C2OC(C1C(=O)OC)C1OC(C)(C)OC21 (stereo not given)
inactive: dose: 50.0 mg/kg/injection, schedule: Q01DX005 (ip), vehicle: saline with Tween-80 99 % of control | dose: 100.0 mg/kg/injection, schedule: Q01DX005 (ip), vehicle: saline with Tween-80 103 % of control | dose: 200.0 mg/kg/injection, schedule: Q01DX005 (ip), vehicle: saline with Tween-80 96 % of control

Nc1nnn(N)n1
inactive: [5] 92 % of control | dose: 200.0 mg/kg/injection, schedule: Q04DX003 (ip), vehicle: saline 100 % of control

O=C1CSC(=S)N1c1ccccc1C(F)(F)F
inactive: dose: 50.0 mg/kg/injection, schedule: Q01DX009 (ip), vehicle: suspension in saline 91 % of control | dose: 100.0 mg/kg/injection, schedule: Q01DX009 (ip), vehicle: suspension in saline 96 % of control | dose: 200.0 mg/kg/injection, schedule: Q01DX009 (ip), vehicle: suspension in saline 93 % of control

CNc1cc2nc3ccccc3nc2cc1O
inactive: [6] 104 % of control | [7] 92 % of control | [8] 86 % of control

c1ccc2c(c1)CCNC2C1NCCc2ccccc21 (stereo not given)
inactive: dose: 12.5 mg/kg/injection, schedule: Q01DX009 (ip), vehicle: Klucel (hydroxypropylcellulose) (HPC) 107 % of control | [9] 100 % of control | [10] 104 % of control | dose: 100.0 mg/kg/injection, schedule: Q01DX001 (ip), vehicle: Klucel (hydroxypropylcellulose) (HPC) 109 % of control | [11] 105 % of control and 91 % of control | dose: 200.0 mg/kg/injection, schedule: Q01DX001 (ip), vehicle: Klucel (hydroxypropylcellulose) (HPC) 107 % of control

O=C1C=C(NCC2CCCN3CCCCC23)C(=O)c2ccccc21 (stereo not given)
inactive: dose: 94.62 mg/kg/injection, schedule: Q04DX002 (ip), vehicle: Klucel (hydroxypropylcellulose) (HPC) 112 % of control | dose: 189.25 mg/kg/injection, schedule: Q04DX002 (ip), vehicle: Klucel (hydroxypropylcellulose) (HPC) 111 % of control

OC(CNC1CC2CCC1C2)COc1cccc2ccccc12 (stereo not given)
inactive: [9] 107 % of control | [10] 107 % of control | [11] 110 % of control

CCc1ccc(NC(=O)NC(=O)c2c(F)cccc2F)cc1
inactive: [12] 114 % of control | [13] 106 % of control | [14] 106 % of control and 116 % of control | [6] 103 % of control and 115 % of control | [15] 100 % of control and 120 % of control | [7] 101 % of control and 98 % of control | [16] 120 % of control and 97 % of control | [8] 100 % of control and 103 % of control

CCCCCCCCCCCCCCCCCCOC(=O)C1CCCN1 (stereo not given)
inactive: dose: 100.0 mg/kg/injection, schedule: Q04DX002 (ip), vehicle: Klucel (hydroxypropylcellulose) (HPC) 101 % of control | dose: 200.0 mg/kg/injection, schedule: Q04DX002 (ip), vehicle: Klucel (hydroxypropylcellulose) (HPC) 99 % of control | dose: 400.0 mg/kg/injection, schedule: Q04DX002 (ip), vehicle: Klucel (hydroxypropylcellulose) (HPC) 94 % of control

O=C(Nc1cccc2c1C(=O)c1ccc(Nc3cc(NC(=O)c4ccccc4)c4c(c3)C(=O)c3ccccc3C4=O)cc1C2=O)c1ccccc1
inactive: [2] 100 % of control | [3] 100 % of control | [4] 109 % of control

CC(=O)OC1CC2CCCCC2[N+](C)(C)C1 (stereo not given)
inactive: dose: 25.0 mg/kg/injection, schedule: Q04DX003 (ip), vehicle: saline 106 % of control | dose: 50.0 mg/kg/injection, schedule: Q04DX003 (ip), vehicle: saline 103 % of control | [5] 104 % of control

Clc1ccccc1OCC1CO1 (stereo not given)
inactive: [15] 100 % of control | [16] 109 % of control | dose: 400.0 mg/kg/injection, schedule: Q01DX009 (ip), vehicle: saline with Tween-80 109 % of control

COc1ccc(CCNC(=O)CC2CC(=O)N(CCc3ccc(OC)c(OC)c3)C(=O)C2)cc1OC
inactive: dose: 50.0 mg/kg/injection, schedule: Q01DX005 (ip), vehicle: Klucel (hydroxypropylcellulose) (HPC) 101 % of control | dose: 100.0 mg/kg/injection, schedule: Q01DX005 (ip), vehicle: Klucel (hydroxypropylcellulose) (HPC) 98 % of control | dose: 200.0 mg/kg/injection, schedule: Q01DX005 (ip), vehicle: Klucel (hydroxypropylcellulose) (HPC) 101 % of control

c1ccc([C@H]2CN3CCSC3=N2)cc1
inactive: dose: 1.25 mg/kg/injection, schedule: Q01DX009 (ip), vehicle: saline 101 % of control | dose: 2.5 mg/kg/injection, schedule: Q01DX009 (ip), vehicle: saline 97 % of control | dose: 5.0 mg/kg/injection, schedule: Q01DX009 (ip), vehicle: saline 101 % of control | dose: 6.9 mg/kg/injection, schedule: Q01DX005 (ip), vehicle: saline 98 % of control | [1] 99 % of control | dose: 11.5 mg/kg/injection, schedule: Q01DX001 (ip), vehicle: saline 100 % of control and 109 % of control | dose: 11.5 mg/kg/injection, schedule: Q01DX005 (ip), vehicle: saline 103 % of control | dose: 19.2 mg/kg/injection, schedule: Q01DX001 (ip), vehicle: saline 99 % of control and 109 % of control | dose: 19.2 mg/kg/injection, schedule: Q01DX005 (ip), vehicle: saline 105 % of control | dose: 20.0 mg/kg/injection, schedule: Q01DX009 (ip), vehicle: saline 113 % of control | dose: 32.0 mg/kg/injection, schedule: Q01DX001 (ip), vehicle: saline 99 % of control

C=C1C(=O)OC2C[C@@]3(C)CC(O)C[C@H](C)C3=CC12 (stereo not given in full)
inactive: dose: 10.0 mg/kg/injection, schedule: Q01DX009 (ip), vehicle: distilled water + Tween-80 + alcohol 103 % of control | dose: 20.0 mg/kg/injection, schedule: Q01DX009 (ip), vehicle: distilled water + Tween-80 + alcohol 111 % of control | dose: 37.5 mg/kg/injection, schedule: Q01DX009 (ip), vehicle: distilled water + Tween-80 + alcohol 120 % of control | dose: 40.0 mg/kg/injection, schedule: Q01DX009 (ip), vehicle: distilled water + Tween-80 + alcohol 117 % of control | dose: 75.0 mg/kg/injection, schedule: Q01DX009 (ip), vehicle: distilled water + Tween-80 + alcohol 123 % of control

CC(CN(C)C)C(/C=C/c1ccccc1)=N\NC(=O)c1ccccc1 (stereo not given)
inactive: dose: 60.0 mg/kg/injection, schedule: Q01DX005 (ip), vehicle: saline 97 % of control | dose: 120.0 mg/kg/injection, schedule: Q01DX005 (ip), vehicle: saline 96 % of control | dose: 240.0 mg/kg/injection, schedule: Q01DX005 (ip), vehicle: saline 97 % of control

Cn1cnc([N+](=O)[O-])c1Sc1ccncn1
inactive: [13] 101 % of control and 105 % of control | [6] 99 % of control and 103 % of control and 114 % of control | [7] 103 % of control and 118 % of control | [8] 112 % of control and 116 % of control

Cc1c(N)ccc(O)c1C
inactive: dose: 12.5 mg/kg/injection, schedule: Q01DX009 (ip), vehicle: saline with Tween-80 120 % of control | [12] 105 % of control | [14] 100 % of control

Cc1c(C)n2c(=O)n(-c3ccccc3)c(=O)n2c1=O
inactive: dose: 60.0 mg/kg/injection, schedule: Q01DX005 (ip), vehicle: Klucel (hydroxypropylcellulose) (HPC) 99 % of control | dose: 120.0 mg/kg/injection, schedule: Q01DX005 (ip), vehicle: Klucel (hydroxypropylcellulose) (HPC) 99 % of control | dose: 240.0 mg/kg/injection, schedule: Q01DX005 (ip), vehicle: Klucel (hydroxypropylcellulose) (HPC) 99 % of control
